In publication PMC6109843, “Novel Quinazolinone Inhibitors of ALK2 Flip between Alternate Binding Modes: Structure–Activity Relationship, Structural Characterization, Kinase Profiling, and Cellular Proof of Concept” (Journal of Medicinal Chemistry, 2018):

Assays:
Experiment in all cases: DiscoverX scanEDGE kinase panel
Format in all cases: binding
Conditions in all cases: Cmpd Conc 1000 nM, read-out: % Ctrl
[1] = molecular target: T1, ABL1(T315I)EP (Homo sapiens, UniProt P00519, T315I)
T1 construct: purchased DiscoverX (DiscoveRx) KINOMEscan scanEDGE / KdELECT
Source text: (§1) We hypothesized that inhibitors of the normal and flipped modes would display distinct selectivity profiles.
(§2) 1. 16 and 21 kinome selectivity data
(§3) (P – phosphorylated; nP – nonphosphorylated; % Ctrl values show the % of DNAEtagged
(§4) kinase which was not displaced from a solid supported ligand by a test compound relative to
(§5) untreated control, quantified by qPCR).
(§6) Please note: ALKs 1, 2, 3, 4, 5 and 6 are listed by their gene symbols: ACVRL1 (ALK1), ACVR1
(§7) (ALK2), BMPR1A (ALK3), ACVR1B (ALK4), TGFBR1 (ALK5) and BMPR1B (ALK6)
(§8) Cmpd DiscoverX Gene Symbol Entrez Gene Symbol % Ctrl Cmpd Conc (nM)

[2] = molecular target: T2, ACVR2B (Homo sapiens, UniProt Q13705)
T2 construct: purchased DiscoverX (DiscoveRx) KINOMEscan scanEDGE / KdELECT
Source text: as §1, §2, §3, §4, §5, §6, §7, §8

[3] = molecular target: T3, ADCK3 (Homo sapiens, UniProt Q8NI60)
T3 construct: purchased DiscoverX (DiscoveRx) KINOMEscan scanEDGE / KdELECT
Source text: as §1, §2, §3, §4, §5, §6, §7, §8

[4] = molecular target: T4, AURKA (Homo sapiens, UniProt O14965)
T4 construct: purchased DiscoverX (DiscoveRx) KINOMEscan scanEDGE / KdELECT
Source text: as §1, §2, §3, §4, §5, §6, §7, §8

[5] = molecular target: T5, AURKB (Homo sapiens, UniProt Q96GD4)
T5 construct: purchased DiscoverX (DiscoveRx) KINOMEscan scanEDGE / KdELECT
Source text: as §1, §2, §3, §4, §5, §6, §7, §8

[6] = molecular target: T6, BTK (Homo sapiens, UniProt Q06187)
T6 construct: purchased DiscoverX (DiscoveRx) KINOMEscan scanEDGE / KdELECT
Source text: as §1, §2, §3, §4, §5, §6, §7, §8

[7] = molecular target: T7, CDK11 (Homo sapiens, UniProt Q9BWU1)
T7 construct: purchased DiscoverX (DiscoveRx) KINOMEscan scanEDGE / KdELECT
Source text: as §1, §2, §3, §4, §5, §6, §7, §8

[8] = molecular target: T8, CDK2 (Homo sapiens, UniProt P24941)
T8 construct: purchased DiscoverX (DiscoveRx) KINOMEscan scanEDGE / KdELECT
Source text: as §1, §2, §3, §4, §5, §6, §7, §8

[9] = molecular target: T9, CDK9 (Homo sapiens, UniProt P50750)
T9 construct: purchased DiscoverX (DiscoveRx) KINOMEscan scanEDGE / KdELECT
Source text: as §1, §2, §3, §4, §5, §6, §7, §8

[10] = molecular target: T10, CSF1R (Homo sapiens, UniProt P07333)
T10 construct: purchased DiscoverX (DiscoveRx) KINOMEscan scanEDGE / KdELECT
Source text: as §1, §2, §3, §4, §5, §6, §7, §8

[11] = molecular target: T11, CSNK1D (Homo sapiens, UniProt P48730)
T11 construct: purchased DiscoverX (DiscoveRx) KINOMEscan scanEDGE / KdELECT
Source text: as §1, §2, §3, §4, §5, §6, §7, §8

[12] = molecular target: T12, CSNK1G2 (Homo sapiens, UniProt P78368)
T12 construct: purchased DiscoverX (DiscoveRx) KINOMEscan scanEDGE / KdELECT
Source text: as §1, §2, §3, §4, §5, §6, §7, §8

[13] = molecular target: T13, ERBB2 (Homo sapiens, UniProt P04626)
T13 construct: purchased DiscoverX (DiscoveRx) KINOMEscan scanEDGE / KdELECT
Source text: as §1, §2, §3, §4, §5, §6, §7, §8

[14] = molecular target: T14, ERBB4 (Homo sapiens, UniProt Q15303)
T14 construct: purchased DiscoverX (DiscoveRx) KINOMEscan scanEDGE / KdELECT
Source text: as §1, §2, §3, §4, §5, §6, §7, §8

[15] = molecular target: T15, FGFR2 (Homo sapiens, UniProt P21802)
T15 construct: purchased DiscoverX (DiscoveRx) KINOMEscan scanEDGE / KdELECT
Source text: as §1, §2, §3, §4, §5, §6, §7, §8

[16] = molecular target: T16, FGFR3 (Homo sapiens, UniProt P22607)
T16 construct: purchased DiscoverX (DiscoveRx) KINOMEscan scanEDGE / KdELECT
Source text: as §1, §2, §3, §4, §5, §6, §7, §8

[17] = molecular target: T17, FYN (Homo sapiens, UniProt P06241)
T17 construct: purchased DiscoverX (DiscoveRx) KINOMEscan scanEDGE / KdELECT
Source text: as §1, §2, §3, §4, §5, §6, §7, §8

[18] = molecular target: T18, GSK3B (Homo sapiens, UniProt P49841)
T18 construct: purchased DiscoverX (DiscoveRx) KINOMEscan scanEDGE / KdELECT
Source text: as §1, §2, §3, §4, §5, §6, §7, §8

[19] = molecular target: T19, KIT(D816H) (Homo sapiens, UniProt P10721, D816H)
T19 construct: purchased DiscoverX (DiscoveRx) KINOMEscan scanEDGE / KdELECT
Source text: as §1, §2, §3, §4, §5, §6, §7, §8

[20] = molecular target: T20, LKB1 (Homo sapiens, UniProt Q15831)
T20 construct: purchased DiscoverX (DiscoveRx) KINOMEscan scanEDGE / KdELECT
Source text: as §1, §2, §3, §4, §5, §6, §7, §8

[21] = molecular target: T21, MKNK1 (Homo sapiens, UniProt Q9BUB5)
T21 construct: purchased DiscoverX (DiscoveRx) KINOMEscan scanEDGE / KdELECT
Source text: as §1, §2, §3, §4, §5, §6, §7, §8

[22] = molecular target: T22, MLK1 (Homo sapiens, UniProt P80192)
T22 construct: purchased DiscoverX (DiscoveRx) KINOMEscan scanEDGE / KdELECT
Source text: as §1, §2, §3, §4, §5, §6, §7, §8

[23] = molecular target: T23, NEK6 (Homo sapiens, UniProt Q9HC98)
T23 construct: purchased DiscoverX (DiscoveRx) KINOMEscan scanEDGE / KdELECT
Source text: as §1, §2, §3, §4, §5, §6, §7, §8

[24] = molecular target: T24, NEK7 (Homo sapiens, UniProt Q8TDX7)
T24 construct: purchased DiscoverX (DiscoveRx) KINOMEscan scanEDGE / KdELECT
Source text: as §1, §2, §3, §4, §5, §6, §7, §8

[25] = molecular target: T25, PDGFRA (Homo sapiens, UniProt P16234)
T25 construct: purchased DiscoverX (DiscoveRx) KINOMEscan scanEDGE / KdELECT
Source text: as §1, §2, §3, §4, §5, §6, §7, §8

[26] = molecular target: T26, PDGFRB (Homo sapiens, UniProt P09619)
T26 construct: purchased DiscoverX (DiscoveRx) KINOMEscan scanEDGE / KdELECT
Source text: as §1, §2, §3, §4, §5, §6, §7, §8

[27] = molecular target: T27, PDPK1 (Homo sapiens, UniProt O15530)
T27 construct: purchased DiscoverX (DiscoveRx) KINOMEscan scanEDGE / KdELECT
Source text: as §1, §2, §3, §4, §5, §6, §7, §8

[28] = molecular target: T28, PLK3 (Homo sapiens, UniProt Q9H4B4)
T28 construct: purchased DiscoverX (DiscoveRx) KINOMEscan scanEDGE / KdELECT
Source text: as §1, §2, §3, §4, §5, §6, §7, §8

[29] = molecular target: T29, RIOK2 (Homo sapiens, UniProt Q9BVS4)
T29 construct: purchased DiscoverX (DiscoveRx) KINOMEscan scanEDGE / KdELECT
Source text: as §1, §2, §3, §4, §5, §6, §7, §8

[30] = molecular target: T30, RSK2(Kin.Dom.1ENEterminal) (Homo sapiens, UniProt P51812)
T30 construct: RSK2(Kin.Dom.1ENEterminal); purchased DiscoverX (DiscoveRx) KINOMEscan scanEDGE / KdELECT
Source text: as §1, §2, §3, §4, §5, §6, §7, §8

[31] = molecular target: T31, SIK2 (Homo sapiens, UniProt Q9H0K1)
T31 construct: purchased DiscoverX (DiscoveRx) KINOMEscan scanEDGE / KdELECT
Source text: as §1, §2, §3, §4, §5, §6, §7, §8

[32] = molecular target: T32, SNARK (Homo sapiens, UniProt Q9H093)
T32 construct: purchased DiscoverX (DiscoveRx) KINOMEscan scanEDGE / KdELECT
Source text: as §1, §2, §3, §4, §5, §6, §7, §8

[33] = molecular target: T33, SRC (Homo sapiens, UniProt P12931)
T33 construct: purchased DiscoverX (DiscoveRx) KINOMEscan scanEDGE / KdELECT
Source text: as §1, §2, §3, §4, §5, §6, §7, §8

[34] = molecular target: T34, SRPK3 (Homo sapiens, UniProt Q9UPE1)
T34 construct: purchased DiscoverX (DiscoveRx) KINOMEscan scanEDGE / KdELECT
Source text: as §1, §2, §3, §4, §5, §6, §7, §8

[35] = molecular target: T35, TRKA (Homo sapiens, UniProt P04629)
T35 construct: purchased DiscoverX (DiscoveRx) KINOMEscan scanEDGE / KdELECT
Source text: as §1, §2, §3, §4, §5, §6, §7, §8

[36] = molecular target: T36, TYK2(JH1domain) (Homo sapiens, UniProt P29597)
T36 construct: TYK2(JH1domain); purchased DiscoverX (DiscoveRx) KINOMEscan scanEDGE / KdELECT
Source text: as §1, §2, §3, §4, §5, §6, §7, §8

[37] = molecular target: T37, ULK2 (Homo sapiens, UniProt Q8IYT8)
T37 construct: purchased DiscoverX (DiscoveRx) KINOMEscan scanEDGE / KdELECT
Source text: as §1, §2, §3, §4, §5, §6, §7, §8

[38] = molecular target: T38, YANK3 (Homo sapiens, UniProt Q86UX6)
T38 construct: purchased DiscoverX (DiscoveRx) KINOMEscan scanEDGE / KdELECT
Source text: as §1, §2, §3, §4, §5, §6, §7, §8

[39] = molecular target: T39, ZAP70 (Homo sapiens, UniProt P43403)
T39 construct: purchased DiscoverX (DiscoveRx) KINOMEscan scanEDGE / KdELECT
Source text: as §1, §2, §3, §4, §5, §6, §7, §8

T36 sequence (P29597 889-1187 limits assumed): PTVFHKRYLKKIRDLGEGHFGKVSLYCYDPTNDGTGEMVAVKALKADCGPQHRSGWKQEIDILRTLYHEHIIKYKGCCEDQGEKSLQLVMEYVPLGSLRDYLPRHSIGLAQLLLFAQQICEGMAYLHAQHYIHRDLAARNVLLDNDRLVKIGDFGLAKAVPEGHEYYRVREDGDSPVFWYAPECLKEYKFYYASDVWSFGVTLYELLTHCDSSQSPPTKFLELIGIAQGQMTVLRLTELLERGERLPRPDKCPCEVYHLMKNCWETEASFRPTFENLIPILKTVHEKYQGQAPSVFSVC
T21 sequence (Q9BUB5 whole entry): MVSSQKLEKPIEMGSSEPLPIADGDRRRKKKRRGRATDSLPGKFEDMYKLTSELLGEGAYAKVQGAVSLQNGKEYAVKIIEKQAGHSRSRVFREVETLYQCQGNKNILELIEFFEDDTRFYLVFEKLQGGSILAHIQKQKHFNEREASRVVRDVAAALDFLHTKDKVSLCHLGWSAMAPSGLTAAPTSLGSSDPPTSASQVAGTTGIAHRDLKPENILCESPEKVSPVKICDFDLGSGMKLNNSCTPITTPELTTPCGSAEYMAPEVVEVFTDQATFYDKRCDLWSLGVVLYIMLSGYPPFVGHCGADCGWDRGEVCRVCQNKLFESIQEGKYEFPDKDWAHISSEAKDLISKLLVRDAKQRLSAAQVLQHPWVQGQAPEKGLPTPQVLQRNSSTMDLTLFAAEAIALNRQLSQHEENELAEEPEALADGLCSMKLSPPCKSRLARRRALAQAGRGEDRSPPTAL
T31 sequence (Q9H0K1 whole entry): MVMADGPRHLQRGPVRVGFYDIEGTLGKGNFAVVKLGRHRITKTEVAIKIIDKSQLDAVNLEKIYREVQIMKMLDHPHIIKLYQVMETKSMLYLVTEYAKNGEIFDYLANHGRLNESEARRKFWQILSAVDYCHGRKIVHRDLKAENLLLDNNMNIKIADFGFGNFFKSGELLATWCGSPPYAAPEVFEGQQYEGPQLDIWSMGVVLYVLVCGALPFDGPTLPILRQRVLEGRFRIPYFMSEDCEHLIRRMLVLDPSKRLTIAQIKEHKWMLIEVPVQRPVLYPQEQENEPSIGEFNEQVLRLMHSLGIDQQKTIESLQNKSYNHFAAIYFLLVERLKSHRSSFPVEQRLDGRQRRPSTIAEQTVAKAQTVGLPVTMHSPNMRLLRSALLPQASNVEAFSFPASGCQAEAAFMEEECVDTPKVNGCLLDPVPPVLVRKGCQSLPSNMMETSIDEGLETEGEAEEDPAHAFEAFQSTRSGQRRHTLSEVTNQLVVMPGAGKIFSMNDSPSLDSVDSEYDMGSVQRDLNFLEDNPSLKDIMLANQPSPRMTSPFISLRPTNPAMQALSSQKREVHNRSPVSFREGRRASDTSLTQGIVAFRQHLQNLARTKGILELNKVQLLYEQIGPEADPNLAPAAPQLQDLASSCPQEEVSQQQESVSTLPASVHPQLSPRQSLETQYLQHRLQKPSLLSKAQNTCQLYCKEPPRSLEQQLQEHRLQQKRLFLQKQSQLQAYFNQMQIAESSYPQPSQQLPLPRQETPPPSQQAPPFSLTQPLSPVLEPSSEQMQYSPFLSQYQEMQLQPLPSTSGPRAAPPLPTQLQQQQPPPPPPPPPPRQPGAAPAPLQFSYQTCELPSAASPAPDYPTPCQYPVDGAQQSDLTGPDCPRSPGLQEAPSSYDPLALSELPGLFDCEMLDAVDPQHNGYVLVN
T30 sequence (P51812 1-397 limits assumed): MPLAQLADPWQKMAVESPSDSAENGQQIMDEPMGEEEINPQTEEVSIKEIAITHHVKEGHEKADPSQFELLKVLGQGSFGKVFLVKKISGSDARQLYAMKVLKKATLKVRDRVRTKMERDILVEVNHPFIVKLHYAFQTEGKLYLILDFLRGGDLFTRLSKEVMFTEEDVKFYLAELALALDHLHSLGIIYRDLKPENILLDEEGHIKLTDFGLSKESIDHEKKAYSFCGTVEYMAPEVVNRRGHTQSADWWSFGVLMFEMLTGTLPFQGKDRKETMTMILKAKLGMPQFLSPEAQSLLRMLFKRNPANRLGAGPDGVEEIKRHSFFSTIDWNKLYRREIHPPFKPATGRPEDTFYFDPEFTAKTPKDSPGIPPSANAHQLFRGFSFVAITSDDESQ
T7 sequence (Q9BWU1 whole entry): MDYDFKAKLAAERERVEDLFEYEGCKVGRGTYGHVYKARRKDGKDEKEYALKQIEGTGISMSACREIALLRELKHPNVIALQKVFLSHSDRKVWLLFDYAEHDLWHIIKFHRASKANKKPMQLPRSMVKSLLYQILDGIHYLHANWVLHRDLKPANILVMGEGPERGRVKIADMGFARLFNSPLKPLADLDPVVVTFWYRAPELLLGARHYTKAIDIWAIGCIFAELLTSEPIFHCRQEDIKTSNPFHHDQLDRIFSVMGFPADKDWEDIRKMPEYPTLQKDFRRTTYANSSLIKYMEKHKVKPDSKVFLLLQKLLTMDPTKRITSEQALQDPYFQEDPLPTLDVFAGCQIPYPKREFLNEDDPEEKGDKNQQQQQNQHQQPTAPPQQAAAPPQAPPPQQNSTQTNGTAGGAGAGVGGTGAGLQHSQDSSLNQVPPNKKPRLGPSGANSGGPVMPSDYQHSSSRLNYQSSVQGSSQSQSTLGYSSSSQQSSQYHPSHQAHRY
T16 sequence (P22607 23-806): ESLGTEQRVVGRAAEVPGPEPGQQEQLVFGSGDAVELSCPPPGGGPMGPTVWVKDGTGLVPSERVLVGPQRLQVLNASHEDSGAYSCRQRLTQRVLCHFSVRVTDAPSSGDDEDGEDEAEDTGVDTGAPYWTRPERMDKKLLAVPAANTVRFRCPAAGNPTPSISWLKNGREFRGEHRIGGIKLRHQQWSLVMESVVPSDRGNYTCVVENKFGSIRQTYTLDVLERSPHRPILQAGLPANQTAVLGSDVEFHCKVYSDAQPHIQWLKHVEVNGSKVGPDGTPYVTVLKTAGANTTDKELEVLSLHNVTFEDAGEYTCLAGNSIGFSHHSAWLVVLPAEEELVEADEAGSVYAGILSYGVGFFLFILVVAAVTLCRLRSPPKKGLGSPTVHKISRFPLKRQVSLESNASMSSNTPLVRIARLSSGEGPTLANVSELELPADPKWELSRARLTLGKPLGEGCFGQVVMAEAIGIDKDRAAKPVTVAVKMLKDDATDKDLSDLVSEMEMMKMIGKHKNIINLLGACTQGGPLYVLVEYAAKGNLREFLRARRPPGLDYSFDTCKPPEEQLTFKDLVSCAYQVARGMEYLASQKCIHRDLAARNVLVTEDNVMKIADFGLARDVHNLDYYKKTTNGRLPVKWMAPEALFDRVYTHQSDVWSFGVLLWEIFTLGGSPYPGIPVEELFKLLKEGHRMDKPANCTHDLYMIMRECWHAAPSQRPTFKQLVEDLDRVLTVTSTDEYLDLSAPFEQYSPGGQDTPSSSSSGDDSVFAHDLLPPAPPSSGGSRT
T28 sequence (Q9H4B4 whole entry): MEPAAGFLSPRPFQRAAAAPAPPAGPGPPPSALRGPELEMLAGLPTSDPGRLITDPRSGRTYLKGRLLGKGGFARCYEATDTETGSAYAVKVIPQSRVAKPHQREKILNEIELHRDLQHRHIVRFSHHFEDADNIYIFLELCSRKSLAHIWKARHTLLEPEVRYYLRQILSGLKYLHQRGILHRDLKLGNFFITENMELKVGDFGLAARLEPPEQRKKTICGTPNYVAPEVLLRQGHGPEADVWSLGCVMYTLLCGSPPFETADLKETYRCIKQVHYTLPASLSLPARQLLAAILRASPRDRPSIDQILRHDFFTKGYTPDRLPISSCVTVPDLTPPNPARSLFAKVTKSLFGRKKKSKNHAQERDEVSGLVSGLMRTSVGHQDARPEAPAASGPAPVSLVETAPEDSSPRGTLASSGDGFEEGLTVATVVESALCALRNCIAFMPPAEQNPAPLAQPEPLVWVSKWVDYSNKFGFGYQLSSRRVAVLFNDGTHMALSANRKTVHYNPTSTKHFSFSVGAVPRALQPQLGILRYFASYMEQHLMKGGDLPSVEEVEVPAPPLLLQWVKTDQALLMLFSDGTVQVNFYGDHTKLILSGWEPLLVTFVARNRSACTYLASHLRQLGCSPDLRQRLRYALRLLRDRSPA
T12 sequence (P78368 whole entry): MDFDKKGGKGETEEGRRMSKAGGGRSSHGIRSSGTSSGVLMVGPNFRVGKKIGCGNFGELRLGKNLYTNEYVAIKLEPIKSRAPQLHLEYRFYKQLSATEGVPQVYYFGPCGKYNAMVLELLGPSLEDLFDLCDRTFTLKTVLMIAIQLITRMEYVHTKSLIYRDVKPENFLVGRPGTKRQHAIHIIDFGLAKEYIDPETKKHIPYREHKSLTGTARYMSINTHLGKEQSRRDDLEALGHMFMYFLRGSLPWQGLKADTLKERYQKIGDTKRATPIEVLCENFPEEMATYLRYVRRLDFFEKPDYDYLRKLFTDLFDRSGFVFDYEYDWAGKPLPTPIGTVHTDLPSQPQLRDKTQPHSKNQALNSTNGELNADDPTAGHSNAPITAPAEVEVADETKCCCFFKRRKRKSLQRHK
T4 sequence (O14965 whole entry): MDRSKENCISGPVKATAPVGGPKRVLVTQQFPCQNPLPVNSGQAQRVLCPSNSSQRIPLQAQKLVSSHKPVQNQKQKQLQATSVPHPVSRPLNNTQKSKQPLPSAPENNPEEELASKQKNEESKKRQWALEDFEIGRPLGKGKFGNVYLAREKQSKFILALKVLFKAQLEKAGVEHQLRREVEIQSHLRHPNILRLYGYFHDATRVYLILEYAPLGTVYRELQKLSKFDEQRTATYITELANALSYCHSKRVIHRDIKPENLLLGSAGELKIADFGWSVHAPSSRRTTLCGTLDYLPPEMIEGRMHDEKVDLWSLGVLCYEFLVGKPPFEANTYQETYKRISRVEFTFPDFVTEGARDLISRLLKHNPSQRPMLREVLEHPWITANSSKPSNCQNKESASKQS

SMILES	remaining binding at 1 µM [1]	remaining binding at 1 µM [2]	remaining binding at 1 µM [3]	remaining binding at 1 µM [4]	remaining binding at 1 µM [5]	remaining binding at 1 µM [6]	remaining binding at 1 µM [7]	remaining binding at 1 µM [8]	remaining binding at 1 µM [9]	remaining binding at 1 µM [10]	remaining binding at 1 µM [11]	remaining binding at 1 µM [12]	remaining binding at 1 µM [13]	remaining binding at 1 µM [14]	remaining binding at 1 µM [15]	remaining binding at 1 µM [16]	remaining binding at 1 µM [17]	remaining binding at 1 µM [18]	remaining binding at 1 µM [19]	remaining binding at 1 µM [20]	also measured
O=c1c2cc(-c3ccnc4ccccc34)ccc2ncn1-c1ccc(N2CCOCC2)cc1 [compound 16, 3-(4-Morpholinophenyl)-6-(quinolin-4-yl)quinazolin-4(3H)-one]	100%	98%	100%	100%	97%	99%	68%	95%	94%	91%	68%	90%	100%	100%	100%	100%	100%	95%	100%	96%	remaining binding at 1 µM [21]: 92%; remaining binding at 1 µM [22]: 97%; remaining binding at 1 µM [23]: 100%; remaining binding at 1 µM [24]: 97%; remaining binding at 1 µM [25]: 8.7%; remaining binding at 1 µM [26]: 20%; remaining binding at 1 µM [27]: 84%; remaining binding at 1 µM [28]: 90%; remaining binding at 1 µM [29]: 100%; remaining binding at 1 µM [30]: 100%; remaining binding at 1 µM [31]: 96%; remaining binding at 1 µM [32]: 100%; remaining binding at 1 µM [33]: 88%; remaining binding at 1 µM [34]: 79%; remaining binding at 1 µM [35]: 76%; remaining binding at 1 µM [36]: 92%; remaining binding at 1 µM [37]: 93%; remaining binding at 1 µM [38]: 86%; remaining binding at 1 µM [39]: 100%
Cc1nc2ccc(-c3ccnc4ccccc34)c(C)c2c(=O)[nH]1 [compound 21, 2,5-Dimethyl-6-(quinolin-4-yl)quinazolin-4(3H)-one]	97%	67%	97%	100%	94%	100%	90%	100%	100%	95%	88%	92%	100%	100%	100%	100%	100%	97%	90%	100%	remaining binding at 1 µM [21]: 93%; remaining binding at 1 µM [22]: 91%; remaining binding at 1 µM [23]: 100%; remaining binding at 1 µM [24]: 100%; remaining binding at 1 µM [25]: 93%; remaining binding at 1 µM [26]: 81%; remaining binding at 1 µM [27]: 95%; remaining binding at 1 µM [28]: 96%; remaining binding at 1 µM [29]: 97%; remaining binding at 1 µM [30]: 97%; remaining binding at 1 µM [31]: 100%; remaining binding at 1 µM [32]: 100%; remaining binding at 1 µM [33]: 98%; remaining binding at 1 µM [34]: 96%; remaining binding at 1 µM [35]: 93%; remaining binding at 1 µM [36]: 95%; remaining binding at 1 µM [37]: 77%; remaining binding at 1 µM [38]: 95%; remaining binding at 1 µM [39]: 99%
